Laboratory results published in article PMC8045554 (Pharmacological research, 2020).

Molecular target: PCSK9 (proprotein convertase subtilisin/kexin type-9) (Homo sapiens, UniProt Q8NBP7)
Assay: SPR with immobilized PCSK9
Format: binding

CC/C=C\[C@H](O)[C@H](O)C1=C(C)C(=O)[C@]2(O1)C(=O)N[C@@](OC)(C(=O)c1ccccc1)[C@@H]2O [PS, Pseurotin A]
Kd: 23.4 µM
